# Laboratory results as given in patent US7605135B2 (priority 2003, dated 2009).
# Like-named read-outs stand apart in the source and are kept apart here.
# Columns and labels:
# SARS-CoV = conditions: fRhK4 cell line; for EC50 (μg/ml) at 48 hrs / EC50 (μg/ml) at 72 hrs: 10 strains of SARS-CoV, inhibition of cytopathic effect to 50% of control
# HIV-1 = conditions: cited from earlier work
# [1] = in vivo, cited from earlier work
# [2] = human, in vivo; cited from earlier work
substance,measurement,setting,value
baicalin,EC50 (μg/ml) at 48 hrs,SARS-CoV,12.5 to 25 µg/mL
same,EC50 (μg/ml) at 48 hrs,SARS-CoV; listed as baicalin,12.5 to 25 µg/mL
same,EC50 (μg/ml) at 72 hrs,SARS-CoV,25 to 50 µg/mL
same,EC50 (μg/ml) at 72 hrs,SARS-CoV; listed as baicalin,25 to 50 µg/mL
same,SI = CC50/EC50 at 48 hrs,SARS-CoV; selectivity index,>8
same,CC50,fRhK4 cell line,>100 µg/mL
same,Antiviral effect,HIV-1,"Inhibition of HIV-1 [Kitamura K et al., “Baicalin: an inhibitor of HIV-1"
same,Serum level (after oral administration) Cmax,"[1]; human, po","Cmax = 60 ng/mL (189.8 mg/person, in human). The amount (i.e., 189.8 mg/"
same,Half life (in humans),[1]; human,"~3 hrs in humans Muto R et al., “The chemical structure of new substance"
same,Serum concentration after oral dose,[1]; po,470 ng/mL
same,Serum level (after intravenous administration) Cmax,[2],74
